Source: patent publication US20020147187A1, “1,2-diphenyl-1-naphthyl ethene derivatives, analogs and use thereof” (priority 2001, published 2002)

Tests used:
[1] = target: human recombinant estrogen receptor beta (Homo sapiens, UniProt Q92731); assay: Estrogen receptor beta binding assay ([3H] Estradiol displacement); conditions: displacement of 0.5 nM [3H] Estradiol, 7.5 ng receptor protein, 2 hours at 25° C.; read-out: IC50 Value, Estrogen Receptor Subtype Beta
MCF-7 cells = assay: MCF-7 cell proliferation assay (estradiol stimulated versus unstimulated, MTT); format: cell-based, human; conditions: estradiol stimulated versus unstimulated MCF-7 cells, FIG. 1
Protocol: Those skilled in the art will appreciate that several acceptable estrogen receptor-binding assays are known and available for initial screening of the compounds of the present invention. The initial screen chosen for detecting anti-estrogenic/estrogenic activity was a human cell line assay, namely the MCF-7 cell proliferation assay. MCF-7 cells are estrogen-receptor positive (ER+) cancer cells that respond to estradiol stimulation. Anti-estrogenic activity is measured in terms of a test article's ability to inhibit estradiol stimulated proliferation, implying an antagonistic action on the estrogen receptor and estrogenic activity can be inferred from increased proliferation. The following testing procedure was used.
MCF-7 cells were maintained in a RPMI medium, free of phenol red, and supplemented with 5% charcoal-stripped foetal calf serum, hydrocortisone, bovine insulin, penicillin and streptomycin until they reached 70% confluence. […] Cell survival was evaluated after 3-6 days, by replacing the culture media with 150 μl of fresh medium containing 10 mM 4-(2-hydroxyethyl)-1-piperazineethamsulfonic acid buffer (pH 7.4) followed by the addition of 50 μl of 2.5 mg/ml of 3-(4,5-dimethylthiazo-2-yl)-2,5-diphenyltetrazolium bromide (MTT). […] Plates were shaken for 15 minutes and the absorbance was determined at 570 nm with a microplate reader (BIORAD, model 450). […]

[2] = target: T1, human recombinant estrogen receptor alpha (Homo sapiens, UniProt P03372); assay: Estrogen receptor alpha binding assay ([3H] Estradiol displacement); conditions: IC50 Value, Estrogen Receptor Subtype Alpha, displacement of 0.5 nM [3H] Estradiol, 4.5 ng receptor protein, 2 hours at 25° C.
T1 sequence (P03372 1-595): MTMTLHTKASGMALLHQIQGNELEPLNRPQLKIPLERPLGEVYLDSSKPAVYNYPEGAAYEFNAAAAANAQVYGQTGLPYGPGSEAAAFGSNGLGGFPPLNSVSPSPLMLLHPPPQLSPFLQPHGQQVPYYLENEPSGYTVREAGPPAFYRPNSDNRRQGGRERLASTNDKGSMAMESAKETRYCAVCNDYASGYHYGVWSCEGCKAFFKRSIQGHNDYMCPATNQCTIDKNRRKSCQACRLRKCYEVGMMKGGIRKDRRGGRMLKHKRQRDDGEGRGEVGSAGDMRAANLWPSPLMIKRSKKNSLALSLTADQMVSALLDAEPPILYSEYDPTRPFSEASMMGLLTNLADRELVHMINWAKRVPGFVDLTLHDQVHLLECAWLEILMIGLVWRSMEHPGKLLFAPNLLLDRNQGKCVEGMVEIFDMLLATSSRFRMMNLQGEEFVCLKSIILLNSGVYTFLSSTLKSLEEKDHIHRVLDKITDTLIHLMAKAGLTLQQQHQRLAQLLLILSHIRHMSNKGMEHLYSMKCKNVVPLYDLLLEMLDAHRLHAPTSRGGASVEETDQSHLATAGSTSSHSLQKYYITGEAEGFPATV
Protocol: The stable expression of these individual receptor subtypes in cells provides a rapid and accurate means of quantifying the direct interaction of a test article with the estrogen binding sites. Briefly, this assay is conducted in 96 well plates where a series of concentrations of the test article are used to displace tritiated estradiol from either estrogen receptor alpha or estrogen receptor beta bearing cell membranes, under equilibrium conditions. […] This measurement is the primary test for mediation of the estrogen receptor and can also be used to measure the relative selectivity of the test article for either the alpha or beta subtype.
The alpha subtype assay measures the binding of [^3H] Estradiol to the human recombinant estrogen receptor. […] Membranes are filtered and washed 3 times, and the filters are counted to determine [^3H] Estradiol specifically bound. […] The measurement of the displaced tritiated estradiol allows the determination of an IC50 value, a direct measure of the test articles' interaction with the estrogen receptor alpha.

Chain of human recombinant estrogen receptor beta (Q92731 whole entry): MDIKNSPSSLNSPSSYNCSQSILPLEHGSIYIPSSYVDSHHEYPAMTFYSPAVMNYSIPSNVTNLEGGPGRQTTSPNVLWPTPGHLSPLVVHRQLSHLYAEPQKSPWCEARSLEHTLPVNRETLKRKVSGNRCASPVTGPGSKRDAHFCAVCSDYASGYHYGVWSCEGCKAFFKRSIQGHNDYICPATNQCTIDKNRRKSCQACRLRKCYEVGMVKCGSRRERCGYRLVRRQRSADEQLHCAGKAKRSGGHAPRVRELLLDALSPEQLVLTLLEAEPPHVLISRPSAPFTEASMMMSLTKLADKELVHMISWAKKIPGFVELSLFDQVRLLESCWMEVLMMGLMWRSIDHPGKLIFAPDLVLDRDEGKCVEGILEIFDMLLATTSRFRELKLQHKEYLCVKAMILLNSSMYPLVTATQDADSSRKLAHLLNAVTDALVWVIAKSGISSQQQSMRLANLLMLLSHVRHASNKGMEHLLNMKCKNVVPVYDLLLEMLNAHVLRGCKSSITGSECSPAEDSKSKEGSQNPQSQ

IC50 [1]: 75 nM
IC50 [2]: 5.54 nM
Structure (SMILES): C/C(=C(/c1ccc(O)cc1)c1cccc2cc(O)ccc12)c1ccc(OCCN2CCCC2)cc1 [Formula II, (E)-5-[1-(4-hydroxyphenyl)-2-[4-(2-pyrrolidin-1-yl-ethoxy)-phenyl]-propenyl]-naphthalen-2-ol]
effect on estradiol stimulated proliferation of MCF-7 cells (shift in dose-response curve) (MCF-7 cells): antagonizing the effect of estradiol
